# PMC4488747, “Inhibition of P-glycoprotein Gene Expression and Function Enhances Triptolide-induced Hepatotoxicity in Mice” (Scientific Reports, 2015)
# Like-named read-outs stand apart in the source and are kept apart here.
# Columns and labels:
# [1] = Triptolide plasma toxicokinetics in mice; format: in vivo; settings: TP 1.0 mg/kg iv
# Protocol: (§1) For TP plasma kinetic study and toxicological evaluation, mice were divided into four groups (n = 5 each) to collect blood and tissue samples: (1) normal + saline group; (2) 1.0 mg/kg TP + 15 nmol NC-siRNA group; (3) 1.0 mg/kg TP + 15 nmol mdr1a-siRNA group; (4) 1.0 mg/kg TP + 10 mg/kg tariquidar group. In order to avoid the complication caused by drug absorption or possible intestinal first-pass effect, TP and the inhibitor were intravenously administrated to mice. The siRNA group was intravenously injected with NC-siRNA or mdr1a-siRNA 2 days before TP dose. For TP + tariquidar group, the mice were received an intravenous tariquidar dose 20 min prior to the TP injection. Blood samples were collected at 2, 5, 10, 15, 30, 60 and 120 min after TP dosing. To assess the liver exposure of TP, liver tissue samples were collected from another set of mice at 5, 30, 60 and 120 min after dosing. Three TP groups were design for this experiment, including TP + NC-siRNA group, TP + mdr1a-siRNA group and TP + tariquidar group. The liver tissue samples were weighed and then homogenized in 10 volume (w:v) of ice-cold saline. The concentrations of TP in plasma and liver tissue were measured by a validated LC-MS/MS method. Prior to the above animal study, a preliminary experiment was performed to assess the possible differences in liver P-gp protein expression (Figure S1) and TP plasma kinetics between NC-siRNA treated mice and normal mice (with saline) (Figure S2 and supplemental Table 1). […] Therefore, NC-siRNA group was used as the control in the following animal study.
# (§2) The TP in plasma and tissue samples was quantitatively analyzed by a published LC-MS/MS method. The method was slightly modified and validated for analysis of plasma and liver tissue samples. Plasma and tissue homogenate were pretreated with 3-fold volume of methanol-acetonitrile (1:1, v/v) containing 20 ng/ml propranolol to precipitate proteins, and then centrifuged at 4°C, 14,000 g for 10 min. The supernatant (10 μl) was injected into LC-MS/MS for analysis. An Aglient 6410B triple quadrupole mass spectrometer equipped with Agilent1290 Infinity UHPLC system (Agilent Technologies, Santa Clara, CA) was used. TP and propranolol (internal standard, IS) were eluted from an Agilent C18 column (dp = 3.5 μm, 2.1 × 50 mm, Agilent, MA) using a mobile phase gradient (A: water with 0.1% formic acid and 2.5 mM ammonium formate, B: acetonitrile with 0.1% formic acid). The gradient was run as: 0–2.5 min hold at 95% B; 2.5–3 min, a linear gradient to 10% B; 3–4 min hold at 10% B. Flow rate was 0.2 ml/min. TP and propranolol were detected in positive ion mode using single reaction monitoring: TP, m/z 378.1/360.1, IS, m/z 260.0/116.0. Under the above optimized condition, no significant endogenous interferences were detected at the peak regions for TP and IS in all the biological specimens. The calibration curves of TP were linear (r^2 > 0.99) over the concentration range of 1–1000 ng/ml. The lower limit of quantification was at 1 ng/ml. The intra and inter-day precisions (RSD) were all below 11% and the assay accuracies (RE) were in the range from 87% to 113%. The recovery was above 80% for both plasma and tissue samples.
# Toxicokinetic parameters, including area under the plasma concentration-time curve (AUC), volume of distribution (Vd), clearance (CL), mean residence time (MRT) and terminal elimination half-life (t1/2), were calculated by non-compartmental analysis using WinNonlin 5.2 software (Pharsight Corporation, CA, USA). All the data were expressed as mean ± SD. Differences between groups were compared by Student’s t-test for analysis of unpaired data or one-way ANOVA. Statistical significance was accepted at P < 0.05.
# [2] = Hepatic concentrations of triptolide in mice; format: in vivo; settings: mice liver
# Protocol: as §1, §2
# [3] = test system: BALB/C mice; assay: Serum ALT and AST (TP-induced hepatotoxicity) in mice; format: in vivo; settings: TP 1 mg/kg iv + NC-siRNA, 24 h after TP
# Protocol: as §1
# At 24 h of TP treatment, blood and liver tissue samples were collected from the mice in plasma kinetic study. Serum ALT and AST levels were determined with a CL8000 automated biochemical analyzer (Shimadzu, Japan) after serum was separated by centrifugation at 900 g for 10 min. Liver tissue samples were divided into two parts, the first half was kept at −80 °C until MDA and SOD measurements using MDA and SOD assay kits (Nanjing Jiancheng Bioengineering Institute, Nanjing, China) according to the manufacturer’s instructions. The other half was fixed with 4% paraformaldehyde solution and then dehydrated, embedded in paraffin and sectioned at a thickness of 5 μm. Four paraffin sections from each mouse were dewaxed, rehydrated and stained with hematoxylin-eosin (HE) for overall morphological evaluation. The total protein concentration was quantified by the BCA assay. Bcl-2 and Bax proteins were measured by western blot.
# [4] = test system: BALB/C mice; assay: Death rate of mice after TP treatment; format: in vivo; settings: TP 1 mg/kg iv, pretreatment with mdr1a-siRNA
# Protocol: For TP plasma kinetic study and toxicological evaluation, mice were divided into four groups (n = 5 each) to collect blood and tissue samples: (1) normal + saline group; (2) 1.0 mg/kg TP + 15 nmol NC-siRNA group; (3) 1.0 mg/kg TP + 15 nmol mdr1a-siRNA group; (4) 1.0 mg/kg TP + 10 mg/kg tariquidar group. In order to avoid the complication caused by drug absorption or possible intestinal first-pass effect, TP and the inhibitor were intravenously administrated to mice. The siRNA group was intravenously injected with NC-siRNA or mdr1a-siRNA 2 days before TP dose. For TP + tariquidar group, the mice were received an intravenous tariquidar dose 20 min prior to the TP injection. Blood samples were collected at 2, 5, 10, 15, 30, 60 and 120 min after TP dosing. To assess the liver exposure of TP, liver tissue samples were collected from another set of mice at 5, 30, 60 and 120 min after dosing. Three TP groups were design for this experiment, including TP + NC-siRNA group, TP + mdr1a-siRNA group and TP + tariquidar group. The liver tissue samples were weighed and then homogenized in 10 volume (w:v) of ice-cold saline. The concentrations of TP in plasma and liver tissue were measured by a validated LC-MS/MS method. […]
# [5] = test system: P-glycoprotein (P-gp); parameters: method as in PMID 24065861; settings: ATPase assay with rat mdr1 membrane; cited from earlier work
# [6] = test system: CYP reductase KO mice; parameters: method as in PMID 21596114; settings: cited from earlier work
# [7] = C57, mouse, iv, 1 mg/kg, 15 nmol NC-siRNA iv 2 days before (control)
# [8] = C57, mouse, iv, 1 mg/kg, 15 nmol mdr1a-siRNA iv 2 days before
# [9] = C57, mouse, iv, 1 mg/kg, with tariquidar 10 mg/kg iv, 20 min before TP, tariquidar 10 mg/kg iv 20 min prior
# [10] = 15 nmol NC-siRNA iv 2 days before (control)
# [11] = 15 nmol mdr1a-siRNA iv 2 days before
structure (smiles),measurement,setting,value
"CC(C)[C@]12O[C@H]1[C@@H]1O[C@]13[C@]1(O[C@H]1C[C@H]1C4=C(CC[C@@]13C)C(=O)OC4)[C@@H]2O [TP, Triptolide]",MRT,"[1]; C57, mouse, 15 nmol NC-siRNA iv 2 days before (control)",20.4 ± 7.8 min
same,AUC(0-t),[1]; [7],104 ± 9.6 ng·h/mL
same,Vd,[1]; [7],4.8 ± 1.1 L/kg
same,half-life,[1]; [7],20.4 ± 8.4 min
same,Cmax,"[1]; C57, mouse, iv, 1 mg/kg, 15 nmol NC-siRNA iv 2 days before (control), read-out: Cmax",413 ± 74 ng/mL
same,AUC(0-t),[1]; [8],154 ± 30.2 ng·h/mL
same,Vd,[1]; [8],3.3 ± 0.7 L/kg
same,half-life,[1]; [8],29.4 ± 13.8 min
same,Cmax,"[1]; C57, mouse, iv, 1 mg/kg, 15 nmol mdr1a-siRNA iv 2 days before, read-out: Cmax",510 ± 94 ng/mL
same,AUC(0-t),[1]; [9],146 ± 24.6 ng·h/mL
same,Vd,[1]; [9],3.9 ± 1.3 L/kg
same,half-life,[1]; [9],29.4 ± 13.2 min
same,Cmax,"[1]; C57, mouse, iv, 1 mg/kg, with tariquidar 10 mg/kg iv, 20 min before TP, tariquidar 10 mg/kg iv 20 min prior, read-out: Cmax",472 ± 66.5 ng/mL
same,CL,[1]; [10],573.84 ± 61.452 L/h/kg
same,Cmax,[1]; [10],413.1 ± 74.2 ng/mL
same,CL,[1]; [11],345.32 ± 72.006 L/h/kg
same,Cmax,[1]; [11],509.7 ± 94.1 ng/mL
same,MRT,"[1]; mouse, 15 nmol mdr1a-siRNA iv 2 days before",30.6 ± 13.8 min
same,MRT,"[1]; mouse, with tariquidar 10 mg/kg iv, 20 min before TP, tariquidar 10 mg/kg iv 20 min prior",30 ± 13.2 min
same,Hepatic concentration of TP,"[2]; 5 min after TP 1.0 mg/kg iv, NC-siRNA pretreatment (control)",1953.3 ± 786.7 ng/g protein
same,Hepatic concentration of TP,"[2]; 5 min after TP 1.0 mg/kg iv, mdr1a-siRNA iv 2 days before",4278.0 ± 653.1 ng/g protein
same,Hepatic concentration of TP,"[2]; 5 min after TP 1.0 mg/kg iv, tariquidar 10 mg/kg iv 20 min prior",2857.3 ± 909.4 ng/g protein
same,Hepatic concentration of TP,"[2]; 30 min after TP 1.0 mg/kg iv, NC-siRNA pretreatment (control)",394.9 ± 41.2 ng/g protein
same,Hepatic concentration of TP,"[2]; 30 min after TP 1.0 mg/kg iv, mdr1a-siRNA iv 2 days before",950.8 ± 232.1 ng/g protein
same,Hepatic concentration of TP,"[2]; 30 min after TP 1.0 mg/kg iv, tariquidar 10 mg/kg iv 20 min prior",683.9 ± 61.3 ng/g protein
same,Hepatic concentration of TP,"[2]; 60 min after TP 1.0 mg/kg iv, NC-siRNA pretreatment (control)",170.6 ± 66.3 ng/g protein
same,Hepatic concentration of TP,"[2]; 60 min after TP 1.0 mg/kg iv, mdr1a-siRNA iv 2 days before",326.2 ± 22.4 ng/g protein
same,Hepatic concentration of TP,"[2]; 60 min after TP 1.0 mg/kg iv, tariquidar 10 mg/kg iv 20 min prior",302.8 ± 22.7 ng/g protein
same,Hepatic concentration of TP,"[2]; 120 min after TP 1.0 mg/kg iv, NC-siRNA pretreatment (control)",37.4 ± 12.2 ng/g protein
same,Hepatic concentration of TP,"[2]; 120 min after TP 1.0 mg/kg iv, mdr1a-siRNA iv 2 days before",84.8 ± 14.5 ng/g protein
same,Hepatic concentration of TP,"[2]; 120 min after TP 1.0 mg/kg iv, tariquidar 10 mg/kg iv 20 min prior",36.1 ± 14.4 ng/g protein
same,"Serum ALT level, folds of the normal group",[3],4.2 folds
same,"Serum AST level, folds of the normal group",[3],5.4 folds
same,Death rate within 30 h of TP treatment,[4],about 60%
same,P-gp substrate identification,[5],substrate
same,Increase fold of TP hepatic exposure,[6]; at 120 min,about 2 fold
same,Increase in AST level,[6],about 2 fold
